From patent US20050090504A1, “Piperidinyl and piperazinyl compounds substituted with bicyclo-heterocyclylalkyl groups useful as CCR3 receptor antagonists” (priority 2003, published 2005)

How the values were obtained:
CCR-3 receptor = biological target: T1, CCR-3 receptor (Homo sapiens, UniProt P51677); assay: CCR-3 Receptor Binding Assay, inhibition of 125I eotaxin binding to CCR-3 L1.2 transfectant cells; conditions: CCR-3 L1.2 transfected cells, 1 hour at rt., read-out: CCR3 Binding IC50
T1 construct: expressed in transfected cells; host or cells: L1.2 (murine pre-beta lymphoma line)
T1 sequence (P51677 1-355): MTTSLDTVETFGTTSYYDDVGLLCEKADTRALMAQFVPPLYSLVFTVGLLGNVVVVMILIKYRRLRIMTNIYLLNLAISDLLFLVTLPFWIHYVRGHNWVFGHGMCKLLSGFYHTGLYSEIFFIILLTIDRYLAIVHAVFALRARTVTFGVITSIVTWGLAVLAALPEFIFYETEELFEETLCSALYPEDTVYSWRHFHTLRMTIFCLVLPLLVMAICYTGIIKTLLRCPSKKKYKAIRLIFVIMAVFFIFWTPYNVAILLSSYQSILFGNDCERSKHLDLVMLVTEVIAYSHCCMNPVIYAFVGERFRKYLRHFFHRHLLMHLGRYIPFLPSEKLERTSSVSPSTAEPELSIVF
Method: The CCR-3 antagonistic activity of the compounds of the invention was determined by their ability to inhibit the binding of ^125 I eotaxin to CCR-3 L1.2 transfectant cells (see Ponath, P. D. et al., J. Exp. Med., Vol. 183, 2437-2448, (1996)).
The assay was performed in Costar 96-well polypropylene round bottom plates. Test compounds were dissolved in DMSO and then diluted with binding buffer (50 mM HEPES, 1 mM CaCl2, 5 mM MgCl2, 0.5% bovine serum albumin (BSA), 0.02% sodium azide, pH 7.24) such that the final DMSO concentration was 2%. 25 μl of the test solution or only buffer with DMSO (control samples) was added to each well, followed by the addition of 25 μl of ^125I-eotaxin ([…]) (NEX314, New England Nuclear, Boston, Mass.) and 1.5×10^5 of the CCR-3 L1.2 transfected cells in 25 μl binding buffer. The final reaction volume was 75 μl.
After incubating the reaction mixture for 1 hour at rt., the reaction was terminated by filtering the reaction mixture through polyethylenimine treated Packard Unifilter GF/C filter plate (Packard, Chicago, Ill.). The filters were washed four times with ice cold wash buffer containing 10 mm HEPES and 0.5M sodium chloride (pH 7.2) and dried at 65° C. for approximately 10 minutes. 25 μl/well of Microscint-20® scintillation fluid (Packard) was added and the radioactivity retained on the filters was determined by using the Packard TopCount®. […]

Structure (SMILES)	IC50 (CCR-3 receptor) [µM]	melting point [°C]
CC(C)C(CN1CCN(Cc2ccc(Cl)c(Cl)c2)CC1)Nc1nc2ccccc2o1 (stereo not drawn) [Example 28, 1-[2-(Benzooxazol-2-ylamino)-3-methyl-butyl]-4-(3,4-dichloro-benzyl)-piperazin-1-ium; chloride]	0.97	
CC(C)(C)[C@H](CN1CCC(Cc2ccc(Cl)c(Cl)c2)CC1)Nc1nc2ccccc2o1 [Example 18, 1-[(R)-2-(benzooxazol-2-ylamino)-3,3-dimethyl-butyl]-4-(3,4-dichloro-benzyl)-piperidinium; chloride]	0.15	
Cc1ccc2oc(NC(CN3CCN(Cc4ccc(Cl)c(Cl)c4)CC3)C(C)C)nc2c1 (stereo not drawn) [Example 9, {1-[4-(3,4-Dichloro-benzyl)-piperazin-1-ylmethyl]-2-methyl-propyl}-(5-methyl-benzooxazol-2-yl)-amine]		155.3 to 156.9
